# Test results from patent US20150133666A1, “TRITOQUALINE FOR USE IN THE TREATMENT OF CYSTIC FIBROSIS” (priority 2012, published 2015).
# Assays:
# histamine H4 receptor = target: T1, histamine H4 receptor (Homo sapiens, UniProt Q9H3N8); experiment: Inhibition of proliferation of CFU rich in H4 receptor (FIG. 4); format: cell-based; settings: for activity on CFU proliferation when using an anti H4: FIG. 4, with an anti H4
# T1 construct: endogenous in cells; host or cells: CFU (colony-forming units) rich in H4 receptor
# T1 sequence (Q9H3N8 whole entry, species assumed): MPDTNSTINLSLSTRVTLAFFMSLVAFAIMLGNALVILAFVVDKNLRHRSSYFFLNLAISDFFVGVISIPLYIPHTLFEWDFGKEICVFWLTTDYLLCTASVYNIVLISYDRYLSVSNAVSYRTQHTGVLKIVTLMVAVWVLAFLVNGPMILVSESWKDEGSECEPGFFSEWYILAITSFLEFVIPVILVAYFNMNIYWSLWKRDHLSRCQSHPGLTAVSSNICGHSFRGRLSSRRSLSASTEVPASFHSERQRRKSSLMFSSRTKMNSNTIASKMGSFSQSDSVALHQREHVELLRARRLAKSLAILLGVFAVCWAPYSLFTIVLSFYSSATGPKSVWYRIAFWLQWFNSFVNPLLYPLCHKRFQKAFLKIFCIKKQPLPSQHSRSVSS
# cystic fibrosis patients = settings: background statement; cited from earlier work
# cystic fibrosis patient [1] = experiment: Number of lung infections (superinfections) per year in patients with cystic fibrosis treated with tritoqualine; format: in vivo, human
# Method: (§1) This level of ventilatory flow signals a severe respiratory impairment. This patient also had 15 lung infections per year prior to treatment. After 6 months of treatment with tritoqualine at a dose of 200 mg/day, the ventilatory flows were again measured. At this second visit, the FEV1 parameter was measured at 0.50 L/s. […] During the third visit, months after the first visit, the flows were again measured.
# Over 12 months, the number of superinfections decreased from 15 to only 4 infections.
# (§2) This patient had had 8 lung infections per year prior to treatment. After 6 months of treatment at the daily dose of 400 mg of tritoqualine, the FEV1 parameter was measured again during a second consultation. The FEV1 parameter measured during this consultation went from 0.45 L/s to 0.50 L/s, or an improvement of 11.11% of the ventilatory flows.
# During the 12-month treatment with tritoqualine (400 mg daily), the patient benefited from a significant reduction in pulmonary infections, from 8 initially to only 3 infections after 12 months of treatment.
# (§3) Before therapy with tritoqualine, the FEV1 of the patient was measured at 0.70 L/s, or 63.64% of the normal expected value (based on age, sex, and size). This patient had had 12 pulmonary infections per year before the treatment. After a 6-month treatment with a daily dose of 300 mg of tritoqualine, the FEV1 parameter was measured at their second consultation at 1.0 L/s. This represents an improvement of 42.86% over the initial visit. (100*([…])/0.70). After 12 months of treatment, the FEV1 parameter measured during the third consultation was 1.20 L/s or 71.43% improvement compared to the initial visit. (100*(1.20-0.70)/0.70).
# These decreased from 12 to 3 infections in one single year.
# histidine decarboxylase = target: T2, histidine decarboxylase (Homo sapiens, UniProt P19113); settings: background statement; cited from earlier work
# T2 sequence (P19113 1-662): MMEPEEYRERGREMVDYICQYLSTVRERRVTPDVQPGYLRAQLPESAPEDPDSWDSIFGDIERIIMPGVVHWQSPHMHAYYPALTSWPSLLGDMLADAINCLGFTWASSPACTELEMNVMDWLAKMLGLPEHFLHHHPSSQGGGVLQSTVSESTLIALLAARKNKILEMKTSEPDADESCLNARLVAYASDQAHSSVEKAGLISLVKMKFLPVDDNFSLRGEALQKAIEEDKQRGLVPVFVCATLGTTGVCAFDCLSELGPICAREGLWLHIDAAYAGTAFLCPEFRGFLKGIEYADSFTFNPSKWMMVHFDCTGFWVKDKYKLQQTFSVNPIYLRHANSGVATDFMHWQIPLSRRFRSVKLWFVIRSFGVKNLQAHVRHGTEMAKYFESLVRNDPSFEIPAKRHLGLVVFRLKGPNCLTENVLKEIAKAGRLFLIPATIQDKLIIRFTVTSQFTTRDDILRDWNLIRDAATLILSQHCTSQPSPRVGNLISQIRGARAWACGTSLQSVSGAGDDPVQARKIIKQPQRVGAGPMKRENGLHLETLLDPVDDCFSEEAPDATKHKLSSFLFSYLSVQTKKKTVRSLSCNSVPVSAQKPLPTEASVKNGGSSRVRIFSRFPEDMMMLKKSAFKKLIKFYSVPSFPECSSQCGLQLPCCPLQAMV
# cystic fibrosis patient [2] = experiment: FEV1 (Forced Expiratory Volume in 1 second) in patients with cystic fibrosis treated with tritoqualine; format: in vivo, human
# Method: During the initial consultation, a treatment based on tritoqualine was started at a daily dose of 200 mg.
# Before therapy with tritoqualine, the FEV1 (Forced Expiratory Volume in 1 second) of this young patient was 0.39 L/s or 55.71% of the normal expected value (based on age, sex, and size). The flow rate was measured with a Jaeger® MasterScreen® Body plethysmography apparatus.
# as §1
# Before therapy with tritoqualine, the FEV1 of the patient was measured at 0.45 L/s or only 69.23% of the normal expected value (based on age, sex, and size).
# as §2
# A child with cystic fibrosis was treated during their first consultation with a dose of 300 mg of tritoqualine.
# as §3
# [3] = white powder; degrades into cotarnine and phthalic acid; cited from earlier work
structure (smiles),measurement,setting,value
NC(=NCc1ccc(Cl)cc1)SCCCc1cnc[nH]1 [Clobenpropit],activity on CFU proliferation when using an anti H4,histamine H4 receptor,greatly reduced
CC(C)(C)c1cc(C(C)(C)C)c(NC(=O)c2c[nH]c3ccccc3c2=O)cc1O [Kalydeco],improvement in FEV1,cystic fibrosis patients,10%
"CCOc1c(N)c2c(c(OCC)c1OCC)C(C1c3c(cc4c(c3OC)OCO4)CCN1C)OC2=O (centres unmarked) [tritoqualine, 7-Amino-4,5,6-triethoxy-3-(5,6,7,8-tetrahydro-4-methoxy-6-methyl-1,3-dioxolo[4,5-g]isoquinolin-5-yl) phthalide]",number of superinfections,"cystic fibrosis patient [1]; Example 1: child, 200 mg/day, over 12 months, 15 per year prior to treatment",4 infections
same,reduction factor of number of infections,cystic fibrosis patient [1]; Example 1: summary statement,divided by three
same,number of pulmonary infections,"cystic fibrosis patient [1]; Example 2: adult, 400 mg/day, after 12 months, 8 initially",3 infections
same,number of pulmonary infections,"cystic fibrosis patient [1]; Example 3: child, 300 mg/day, in one year, 12 before treatment",3 infections
same,proliferation of CFU rich in H4 receptor,histamine H4 receptor; FIG. 4,capable of inhibiting the proliferation
same,activity on CFU proliferation when using an anti H4,histamine H4 receptor,greatly reduced
same,inhibitory action on histidine decarboxylase,histidine decarboxylase,very low
same,increase of FEV1 compared to initial flows,"cystic fibrosis patient [2]; Example 1: child, 200 mg/day, after 6 months",28.2%
same,FEV1,"cystic fibrosis patient [2]; Example 1: child, 200 mg/day, after 6 months (second visit), before therapy 0.39 L/s",0.50 L/s
same,improvement of FEV1 compared to initial rates,"cystic fibrosis patient [2]; Example 1: child, 200 mg/day, third visit",58.7%
same,FEV1,"cystic fibrosis patient [2]; Example 1: child, 200 mg/day, third visit, before therapy 0.39 L/s",0.62 L/s
same,increase of ventilatory flows,cystic fibrosis patient [2]; Example 1: summary statement,more than 50%
same,improvement of ventilatory flows (FEV1),"cystic fibrosis patient [2]; Example 2: adult, 400 mg/day, after 6 months vs baseline",11.11%
same,FEV1,"cystic fibrosis patient [2]; Example 2: adult, 400 mg/day, after 6 months, before therapy 0.45 L/s",0.50 L/s
same,increase in FEV1 compared to the initial visit,"cystic fibrosis patient [2]; Example 2: adult, 400 mg/day, after 12 months",28.89%
same,FEV1,"cystic fibrosis patient [2]; Example 2: adult, 400 mg/day, after 12 months, before therapy 0.45 L/s",0.58 L/s
same,improvement of FEV1 over the initial visit,"cystic fibrosis patient [2]; Example 3: child, 300 mg/day, after 6 months",42.86%
same,FEV1,"cystic fibrosis patient [2]; Example 3: child, 300 mg/day, after 6 months, before therapy 0.70 L/s",1.0 L/s
same,improvement of FEV1 compared to the initial visit,"cystic fibrosis patient [2]; Example 3: child, 300 mg/day, after 12 months",71.43%
same,FEV1,"cystic fibrosis patient [2]; Example 3: child, 300 mg/day, after 12 months, before therapy 0.70 L/s",1.20 L/s
same,sensitivity to light,[3],very sensitive to light
